Measured values: patent US7189679B2, “Herbicidal 3-amino-2-thiomethylbenzoylpyrazoles” (Bayer CropScience GmbH, priority 2004, dated 2007)

Assays:
Type in all cases: in vivo
[1] = test system: rice; test: Crop plant tolerance test, damage to crop plant; settings: 100 g/ha, visual scoring four to five weeks after application
[2] = test system: Echinochloa crus-galli; test: Crop plant tolerance test, action against weed plants; settings: 100 g/ha, visual scoring four to five weeks after application
Description: (§1) Seeds of mono- and dicotyledonous weed plants are placed in sandy loam in cardboard pots, covered with soil and grown in the greenhouse under good growth conditions. Two to three weeks after sowing, the test plants are treated at the three-leaf stage. The compounds according to the invention, formulated as wettable powders or as emulsifiable concentrates, are sprayed at various dosages onto the surface of the green plant parts at an application rate of 600 to 800 l of water per ha (converted). After the test plants have been left to stand in the greenhouse for 3 to 4 weeks under optimal growth conditions, the effect of the compounds is scored.
(§2) In further greenhouse experiments, seeds of barley and of monocotyledonous and dicotyledonous weed plants are placed in sandy loam, covered with soil and placed in the greenhouse until the plants have developed two to three true leaves. Then they are treated with the compounds of the formula (I) according to the invention, as described above in section 2.

[3] = test system: Cyperus serotinus; test: as above; settings: 100 g/ha, visual scoring four to five weeks after application
Description: as §1, with “After the test plants have been left to stand in the greenhouse for 3 to 4 weeks under optimal growth conditions, the effect of the compounds is scored.” left out
as §2

[4] = test system: Sagittaria pygmaea; test: as above; settings: 100 g/ha, visual scoring four to five weeks after application
Description: as §1, with “After the test plants have been left to stand in the greenhouse for 3 to 4 weeks under optimal growth conditions, the effect of the compounds is scored.” left out
as §2

[5] = test system: Scirpus juncoides; test: as above; settings: 100 g/ha, visual scoring four to five weeks after application
Description: as §1, with “After the test plants have been left to stand in the greenhouse for 3 to 4 weeks under optimal growth conditions, the effect of the compounds is scored.” left out
as §2

[6] = test system: Amaranthus retroflexus; test: Post-emergence herbicidal action against weed plants; settings: three-leaf stage, 320 g/ha, scored after 3 to 4 weeks
Description: as §1

[7] = test system: Stellaria media; test: as above; settings: three-leaf stage, 320 g/ha, scored after 3 to 4 weeks
Description: as §1

[8] = test system: Setaria viridis; test: as above; settings: three-leaf stage, 320 g/ha, scored after 3 to 4 weeks
Description: as §1

[9] = test system: Echinochloa crus-galli; test: as above; settings: three-leaf stage, 320 g/ha, scored after 3 to 4 weeks
Description: as §1

[10] = test system: Fallopia convolvulus; test: as above; settings: three-leaf stage, 320 g/ha, scored after 3 to 4 weeks
Description: as §1

[11] = test system: Sinapis arvensis; test: as above; settings: three-leaf stage, 320 g/ha, scored after 3 to 4 weeks
Description: as §1

[12] = test system: Chenopodium album; test: as above; settings: three-leaf stage, 320 g/ha, scored after 3 to 4 weeks
Description: as §1

Row | SMILES | damage to the crop plant rice [1] | action against Echinochloa crus-galli [2] | action against Cyperus serotinus [3] | action against Sagittaria pygmaea [4] | action against Scirpus juncoides [5] | activity against Amaranthus retroflexus [6] | activity against Stellaria media [7] | activity against Setaria viridis [8] | activity against Echinochloa crus-galli [9] | activity against Fallopia convolvulus [10] | activity against Sinapis arvensis [11] | activity against Chenopodium album [12]
1 | CCn1ncc(C(=O)c2ccc(Br)c(N)c2CS(C)(=O)=O)c1O [compound 6] | no damage | at least 95% | at least 95% | at least 95% | at least 95% |  |  |  |  |  |  | 
2 | CCCS(=O)(=O)Oc1c(C(=O)c2ccc(Br)c(N)c2CS(C)(=O)=O)c(C)nn1C [compound 4] |  |  |  |  |  | at least 90% | at least 90% | at least 90% | at least 90% | at least 90% | at least 90% | at least 90%
